According to patent US4707468A, “Polypeptide” (Eisai Co., Ltd., priority 1984, dated 1987):

Legend:
mice = experiment: Toxicity (minimum lethal dose) in mice; format: in vivo; conditions: administered subcutaneously in mice
Excerpt: The relationship between the toxicity (minimum lethal dose) of the peptide compound obtained in Examples 1 and 2 of the present invention and the effective dose is shown in Table 4.
Effective dose and minimum lethal dose
when administered subcutaneously in mice

rabbit vas deferens = experiment: Opioid activity, rabbit vas deferens method (inhibition of electrically stimulated contraction); format: cell-based; conditions: electric stimulation 0.1 Hz, 1 ms, 90 volt
Description: The opioid activities of the compounds of the invention were examined by the method using rabbit vas deferens according to T. Oka, K. Negishi, M. Suda, T. Matsumiya, T. Inaza and M. Ueki, "Europ. J. Pharmacol.", Vol. 73, 235 (1980). In this test, mature male rabbits were sacrificed by introducing air into an […]. Immediately after death, a laparotomy was conducted and right and left vasa deferens were removed. The semen was pressed out of the ducts into Ringer's solution. A part of each duct was cut ([…] long from an end of the prostrate gland side). The pieces of the deferentaial ducts were suspened by means of a thread in a 6 ml constant-temperature glass cell and stimulated electrioally with an electric stimulation device having platinum electrodes under conditions of 0.1 Hz, 1 ms and 90 volt. A contraction due to the electric stimulation was recorded through a transducer.
The opioid activity was determined on the basis of the inhibition of the contraction due to the electric stimulation.
The results are shown in Table 3 in terms of 50% inhibitation concentration (IC50).
The following compounds obtained in the examples ere tested in the same way as described above.

Compound | Minimum Lethal Dose (mice) [mg/kg] | IC50 (rabbit vas deferens) [nM]
CCNC(=O)[C@@H](CC(C)C)NC(=O)[C@H](CCCNC(=N)N)N(C)C(=O)[C@H](CCCNC(=N)N)NC(=O)[C@H](CC(C)C)NC(=O)[C@H](Cc1ccccc1)NC(=O)CNC(=O)CNC(=O)[C@H](Cc1ccc(O)cc1)NC [Example 1, CH3 Tyr-Gly-Gly-Phe-Leu-Arg-CH3 Arg-D-Leu-NHC2 H5] | 100 | 
CN[C@@H](Cc1ccc(O)cc1)C(=O)NCC(=O)NCC(=O)N[C@@H](Cc1ccccc1)C(=O)N[C@@H](CC(C)C)C(=O)N[C@@H](CCCNC(=N)N)C(=O)N(C)[C@@H](CCCNC(=N)N)C(=O)N[C@H](C)C(=O)O [Example 30, CH3 Tyr-Gly-Gly-Phe-Leu-Arg-CH3 Arg-D-Ala-OH] | > 100 | 
CN[C@@H](Cc1ccc(O)cc1)C(=O)NCC(=O)NCC(=O)N[C@@H](Cc1ccccc1)C(=O)N[C@@H](CC(C)C)C(=O)N[C@@H](CCCNC(=N)N)C(=O)N(C)[C@@H](CCCNC(=N)N)C(=O)N(C)[C@@H](C)C(=O)O [Example 31, CH3 Tyr-Gly-Gly-Phe-Leu-Arg-CH3 Arg-CH3 Ala-OH] | > 100 | 
CC[C@H](C)[C@@H](C(=O)O)N(C)C(=O)[C@H](CCCNC(=N)N)N(C)C(=O)[C@H](CCCNC(=N)N)NC(=O)[C@H](CC(C)C)NC(=O)[C@H](Cc1ccccc1)NC(=O)CNC(=O)CNC(=O)[C@H](Cc1ccc(O)cc1)NC [Example 36, CH3 Tyr--Gly--Gly--Phe--Leu--Arg--CH3 Arg--CH3 Ile--OH] | > 100 | 
H-Tyr-Gly-Gly-Phe-Leu-Arg-Arg-Ile-Arg-Pro-Lys-Leu-Lys-Trp-Asp-Asn-Gln-OH [dynorphin A (1-17)] |  | 17.4
